The results in this text go back to ChEMBL document CHEMBL4425186, “Discovery and SAR of pyrrolo[2,1-f][1,2,4]triazin-4-amines as potent and selective PI3Kδ inhibitors” (Bioorg Med Chem Lett, 2016).

The target in data set [1] is T1, Phosphatidylinositol 4,5-bisphosphate 3-kinase catalytic subunit delta isoform (Homo sapiens, UniProt O00329).
T1 sequence (O00329 whole entry): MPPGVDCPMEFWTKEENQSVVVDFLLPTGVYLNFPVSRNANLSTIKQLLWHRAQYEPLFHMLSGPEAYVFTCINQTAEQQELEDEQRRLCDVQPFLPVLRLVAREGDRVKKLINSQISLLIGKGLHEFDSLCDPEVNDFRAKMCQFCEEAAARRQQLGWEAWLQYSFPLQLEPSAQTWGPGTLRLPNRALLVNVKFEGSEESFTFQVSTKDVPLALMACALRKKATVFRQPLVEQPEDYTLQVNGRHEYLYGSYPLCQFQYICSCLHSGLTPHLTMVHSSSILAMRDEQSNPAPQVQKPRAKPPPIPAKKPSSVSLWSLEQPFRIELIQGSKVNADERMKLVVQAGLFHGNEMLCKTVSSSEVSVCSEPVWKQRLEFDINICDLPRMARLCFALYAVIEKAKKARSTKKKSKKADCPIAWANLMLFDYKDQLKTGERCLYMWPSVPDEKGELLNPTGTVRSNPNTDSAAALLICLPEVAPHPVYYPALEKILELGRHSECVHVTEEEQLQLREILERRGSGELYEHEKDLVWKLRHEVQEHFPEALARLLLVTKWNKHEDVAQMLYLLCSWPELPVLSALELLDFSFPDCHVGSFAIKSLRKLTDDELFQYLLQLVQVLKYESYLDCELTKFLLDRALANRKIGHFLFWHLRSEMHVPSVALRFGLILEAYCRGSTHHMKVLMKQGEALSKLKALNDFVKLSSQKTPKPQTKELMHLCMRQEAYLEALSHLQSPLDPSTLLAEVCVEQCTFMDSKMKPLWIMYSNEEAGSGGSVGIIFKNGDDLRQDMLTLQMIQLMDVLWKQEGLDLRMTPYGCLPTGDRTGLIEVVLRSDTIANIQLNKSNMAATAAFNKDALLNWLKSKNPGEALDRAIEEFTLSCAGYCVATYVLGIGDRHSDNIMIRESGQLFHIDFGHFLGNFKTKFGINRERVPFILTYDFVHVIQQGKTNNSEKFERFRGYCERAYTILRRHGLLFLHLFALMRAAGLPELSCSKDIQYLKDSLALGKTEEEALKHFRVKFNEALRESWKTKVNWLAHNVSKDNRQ

Data set [2] in a line: Stability in mouse liver microsomes assessed as parent compound remaining at 0.5 uM after 10 mins by high throughput assay. Particulars: read-out: Stability; call rule not given here. It counts as ADME, Microsome.
The test system of a further data set is B cell. Put plainly: Antiproliferative activity against human B cells by thymidine incorporation assay. It counts as functional, cell-based.
Data set [3] deals with T1, Phosphatidylinositol 4,5-bisphosphate 3-kinase catalytic subunit delta isoform. In words: Inhibition of PI3Kdelta in BCR-stimulated human B cells assessed as suppression of CD86 expression after 18 hrs by FACS analysis. On the technique in general: A flow cytometer gives signals particle by particle.
A short description of data set [4]: Stability in rat liver microsomes assessed as parent compound remaining at 0.5 uM after 10 mins by high throughput assay. It counts as ADME, Microsome. Particulars: read-out: Stability. In general terms: Microsomes from liver hold many membrane-bound enzymes, among them those of drug oxidation.
The next data set relates to Cytochrome P450. In words: Inhibition of Cytochrome P450 (unknown origin). It counts as ADME, protein assay. Particulars: human.
The nature of data set [5]: Volume of distribution in mouse. The note with it: in vivo. It counts as ADME, organism-based.
For data set [6], the system named is Mus musculus. In words: Antiarthritic activity in DBA/1 mouse model of collagen-induced arthritis assessed as reduction in anti-collagen IgG titres at 100 mg/kg, po pretreated for 2 hrs followed by first collagen injection measured after second collagen injection on day 21 by ELISA relative to control. It counts as functional. Also on record: scale not given: the % may be the effect or the level left.

A short description of data set [7]: Oral bioavailability in mouse. It counts as ADME, organism-based. The note with it: in vivo.
Data set [8] in a line: Half life in mouse. It counts as ADME, organism-based. The note with it: in vivo.
Data set [9] concerns Mus musculus. Put plainly: Antiarthritic activity in DBA/1 mouse model of collagen-induced arthritis assessed as reduction in clinical arthritic scores at 100 mg/kg, po pretreated for 2 hrs followed by first collagen injection measured after second collagen injection on day 21 relative to control. Also on record: scale not given: the % may be the effect or the level left. It counts as functional.

Data set [10] can be described thus: Clearance in mouse. Particulars: in vivo. It counts as ADME, organism-based.
A short description of data set [11]: Cmax in mouse at 30 mg/kg, po. It counts as ADME, organism-based. Also on record: dose 30 mg/kg, route oral. The note with it: in vivo.
Data set [12] can be described thus: AUC in mouse at 30 mg/kg, po. It counts as ADME, organism-based. The note with it: in vivo.
Data set [13] has as its system Mus musculus. In words: Antiarthritic activity in DBA/1 mouse model of collagen-induced arthritis assessed as reduction in clinical arthritic scores at 1 mg/kg/day, po pretreated for 2 hrs followed by first collagen injection measured after second collagen injection on day 21 relative to control. It counts as functional. Also on record: scale not given: the % may be the effect or the level left.

In data set [14] the test system is Mus musculus. In words: Antiarthritic activity in DBA/1 mouse model of collagen-induced arthritis assessed as reduction in anti-collagen IgG titres at 1 mg/kg/day, po pretreated for 2 hrs followed by first collagen injection measured after second collagen injection on day 21 by ELISA relative to control. It counts as functional. Also on record: scale not given: the % may be the effect or the level left.

Each structure is given as a SMILES string.

For `Cn1cc(-c2cc(-c3ccnn3C3CCCCC3)c3c(N)ncnn23)cn1`, half-maximal inhibition in data set [1] (IC50) was put at 11 nM.

`Nc1ncnn2c(-c3cccnc3)cc(-c3ccnn3C3CCOCC3)c12` registered an IC50 in [1] of 42 nM.

Turning to `CC1(C)OC(=O)NC1c1cccc(-c2cc(-c3ccnn3C3CCOCC3)c3c(N)ncnn23)c1` (centres undefined), the remaining at 10 min, 0.5 µM in data set [2] worked out at 45%. Moreover, in the data set on B cell, the half-maximal inhibitory concentration (IC50) worked out at 31 nM.

In data set [1], `Nc1ncnn2c(-c3cccnc3)cc(-c3ccnn3C3CCS(=O)(=O)CC3)c12` returned an IC50 of 163 nM.

Compound `Nc1ncnn2c(-c3cccnc3)cc(-c3ccnn3C3CCCC3)c12` returned a concentration for half-maximal inhibition (IC50) in data set [1] of 29 nM.

`Nc1ncnn2c(-c3cccc(C(=O)N4CCCC4)c3)cc(-c3ccnn3C3CCCCC3)c12`: the concentration for half-maximal inhibition (IC50) in data set [1] came out at 2 nM; in data set [3] it was 36 nM.

In the case of `Nc1ncnn2c(-c3cccc(CN4CCCC4=O)c3)cc(-c3ccnn3C3CCOCC3)c12`, the remaining at 10 min, 0.5 µM in data set [2] turned out to be 19%. Besides, the concentration for half-maximal inhibition (IC50) with B cell worked out at 35 nM.

Turning to `Nc1ncnn2c(-c3ccc(CO)cc3)cc(-c3ccnn3C3CCCCC3)c12`, half-maximal inhibition in data set [1] (IC50) was put at 31 nM.

Take `Nc1ncnn2c(-c3ccccc3)cc(-c3ccnn3C3CCCCC3)c12`: half-maximal inhibition in data set [1] (IC50) required 576 nM.

For the compound `CC(C)C(=O)N1C[C@H](O)C[C@H]1c1cccc(-c2cc(-c3ccnn3C3CCOCC3)c3c(N)ncnn23)c1`, the remaining at 10 min, 0.5 µM in data set [2] was determined as 4%. Further, the values for the IC50 (in data set [1]; with B cell; in data set [3]) were 1 nM, 8 nM and 110 nM, respectively.

Consider `CN1CCN(Cc2cccc(-c3cc(-c4ccnn4C4CCOCC4)c4c(N)ncnn34)c2)CC1`, for which the remaining at 10 min, 0.5 µM in data set [2] worked out at 100%. Moreover, the half-inhibitory concentration (IC50) in data set [1] was 4 nM; in the data set on B cell, 28 nM; in data set [3] it was 721 nM.

For `Nc1ncnn2c(-c3cccc(CO)c3)cc(-c3ccnn3C3CCCCC3)c12`, the midpoint of inhibition in [1], the IC50, lay at 27 nM.

In the case of `CN1CCC(n2nccc2-c2cc(-c3cccnc3)n3ncnc(N)c23)CC1`, the half-inhibitory concentration (IC50) in data set [1] came to 150 nM.

On to `Nc1ncnn2c(-c3ccncc3)cc(-c3ccnn3C3CCCCC3)c12`, for which the remaining at 10 min, 0.5 µM was determined as 16% in [2] and 46% in data set [4]. In addition, the midpoint of inhibition in data set [1], the IC50, lay at 22 nM.

As to `NCc1ccc(-c2cc(-c3ccnn3C3CCCCC3)c3c(N)ncnn23)cc1`, the IC50 in data set [1] stood at 26 nM.

Consider `CS(=O)(=O)NCc1cccc(-c2cc(-c3ccnn3C3CCOCC3)c3c(N)ncnn23)c1`, for which half-maximal inhibition with B cell (IC50) required 99 nM.

`Nc1ncnn2c(-c3cccnc3)cc(-c3ccnn3C3CCCCCC3)c12`: the IC50 in [1] stood at 231 nM.

On to `CN1C[C@H](O)C[C@@H]1c1cccc(-c2cc(-c3ccnn3C3CCOCC3)c3c(N)ncnn23)c1`, for which the remaining at 10 min, 0.5 µM in data set [2] was 65%. Half-maximal inhibition with B cell (IC50) was put at 87 nM.

With `Nc1ncnn2c(-c3cccnc3)cc(-c3ccnn3C3CCCCC3)c12`, in [1], the IC50 is 22 nM. The “inhibition (INH)” value in the data set with Cytochrome P450 is listed as “Not Active”.

As to `CC(C)Cn1nccc1-c1cc(-c2cccnc2)n2ncnc(N)c12`, the half-inhibitory concentration (IC50) in data set [1] was 252 nM.

For the compound `CN(C)C1(c2cccc(-c3cc(-c4ccnn4C4CCOCC4)c4c(N)ncnn34)c2)COC1`, the remaining at 10 min, 0.5 µM in [2] came out at 70%. The compound further returned a concentration for half-maximal inhibition (IC50) in the data set with B cell of 9 nM.

For `CN(C)c1cccc(-c2cc(-c3ccnn3C3CCCCC3)c3c(N)ncnn23)c1`, the IC50 in data set [1] was found to be 3 nM; in data set [3] it was 16 nM.

In data set [1], `Nc1ncnn2c(-c3cccc(S(N)(=O)=O)c3)cc(-c3ccnn3C3CCCCC3)c12` gave an IC50 of 14 nM.

For the compound `Nc1ncnn2c(-c3cccc(C4(N5CCOCC5)COC4)c3)cc(-c3ccnn3C3CCOCC3)c12`, the remaining at 10 min, 0.5 µM in data set [2] stood at 6%. Moreover, half-maximal inhibition with B cell (IC50) required 1 nM.

Turning to `CN(C)C(C)(C)c1cccc(-c2cc(-c3ccnn3C3CCOCC3)c3c(N)ncnn23)c1`, the remaining at 10 min, 0.5 µM in data set [2] came out at 58%. The compound further had an IC50 in the data set with B cell of 6 nM. The compound also had a Vd in data set [5] of 6.2 L/kg. The figures for the Activity in the data set on Mus musculus [6] and in the data set on Mus musculus [9] were 80% and 100%, respectively. Moreover, the bioavailability in [7] was 46%. The compound further showed a half-life in [8] of 1 h. In data set [10], this compound had a clearance of 82.1 mL/min/kg. This compound displayed a Cmax in [11] of 2890 nM. Further, the AUC in data set [12] was 6.23 µM·h.

On to `Nc1ncnn2ccc(-c3ccnn3C3CCCCC3)c12`, for which the 50% inhibitory concentration (IC50) in data set [1] stood at 405 nM.

On to `CC(C)[C@H]1COC(=O)N1Cc1cccc(-c2cc(-c3ccnn3C3CCOCC3)c3c(N)ncnn23)c1`, for which the remaining at 10 min, 0.5 µM in [2] is 0.09%.

Turning to `CN(Cc1cnc2nc(N)nc(N)c2n1)c1ccc(C(=O)N[C@@H](CCC(=O)O)C(=O)O)cc1` [METHOTREXATE], the figures for the Activity in the data set on Mus musculus [13] and in the data set on Mus musculus [14] were 83% and 63%, respectively.

The term IC50 denotes the point on the concentration scale where inhibition reaches its midpoint. Usually Vd stands for the apparent volume that relates the amount in the body to the concentration in plasma or blood. The bioavailability is the share of a dose that reaches the circulation, judged against a reference dose that is usually intravenous. For orientation: half-life means how long it takes for the measured level to halve. The clearance is the rate of elimination divided by the concentration. The Cmax is the maximum level reached in the sampled fluid or tissue. What is called AUC is concentration integrated over time.
